In assay [1] the test system is NCI-H358 (K-Ras G12C). Description: CellTiter-Glo cell viability assay, NCI-H358. The assay is classed as cell-based, human. Particulars: Homo sapiens, NCI-H358, 120 h, NCI-H358, 5-day treatment; class symbols; read-out: Additional H358 Cell Viability assay data (K-Ras G12C, IC50). The gist of the method: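 Viability measured by CellTiter-Glo luminescence on day 5 following direct addition of compound to plated cells. Values expressed as percent of mean DMSO signal; curves fitted with a four-parameter logistic model.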

Assay [2] concerns the target K-Ras G12C (Homo sapiens (Human), UniProt P01116+P62937, G12C). Description: Ras-Raf (BRAF RBD) disruption / FRET / MOA assay, KRAS G12C. The assay is classed as biochemical. The note with it: KRAS G12C; Ras-Raf disruption/FRET/MOA assay; read-out: IC50* KRAS G12C FRET data. The gist of the method:
(§1)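 Ras:RAF disruption was scored as a fall in TR-FRET ratio relative to DMSO. Compound ranged in 3-fold steps over 10 points from 30 μM final; incubation ran 3 h at 25° C, detection antibodies a further 1.5 h. Reported as IC50.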

Assay [3] addresses K-Ras G13C (Homo sapiens (Human), UniProt P01116+P62937, G13C). Kind of assay: Ras-Raf (BRAF RBD) disruption / FRET / MOA assay, KRAS G13C. Format: biochemical. The note with it: KRAS G13C; Ras-Raf disruption/FRET/MOA assay; read-out: IC50* KRAS G13C FRET data. The gist of the method:
as §1

The target of assay [4] is KRAS G12V (Homo sapiens (Human), UniProt P01116+P62937, G12V). Kind of assay: Ras-Raf (BRAF RBD) disruption / FRET / MOA assay, KRAS G12V. Format: biochemical. The note with it: read-out: IC50* KRAS G12V FRET data. The gist of the method: as §1
KRAS G12V, sequence (P01116-2 other isoform, or with tags, fused parts or gaps G12V): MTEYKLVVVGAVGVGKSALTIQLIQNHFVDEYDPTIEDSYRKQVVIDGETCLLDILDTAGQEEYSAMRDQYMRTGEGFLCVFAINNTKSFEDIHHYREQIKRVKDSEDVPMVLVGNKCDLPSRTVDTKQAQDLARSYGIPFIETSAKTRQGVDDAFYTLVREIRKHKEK
KRAS G12V, sequence (P62937 whole entry): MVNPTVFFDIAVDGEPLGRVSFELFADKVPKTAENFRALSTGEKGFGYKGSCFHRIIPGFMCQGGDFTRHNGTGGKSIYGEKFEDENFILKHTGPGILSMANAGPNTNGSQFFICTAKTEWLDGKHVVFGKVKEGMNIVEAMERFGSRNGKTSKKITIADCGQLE
For assay [5], the target named is KRAS WT (Homo sapiens (Human), UniProt P01116+P62937). Kind of assay: Ras-Raf (BRAF RBD) disruption / FRET / MOA assay, KRAS WT. Format: biochemical. The note with it: read-out: IC50* KRAS WT FRET data. The gist of the method: as §1
KRAS WT, sequence (P01116-2 other isoform, or with tags, fused parts or gaps): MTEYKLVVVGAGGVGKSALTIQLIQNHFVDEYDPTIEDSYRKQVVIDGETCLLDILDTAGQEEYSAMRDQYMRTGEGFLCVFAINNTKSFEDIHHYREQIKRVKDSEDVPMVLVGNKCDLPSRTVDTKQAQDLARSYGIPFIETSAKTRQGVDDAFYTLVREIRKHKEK
KRAS WT, sequence (P62937 whole entry): as the sequence (P62937 whole entry) above
Assay [6] has as its target KRAS G13D (Homo sapiens (Human), UniProt P01116+P62937, G13D). Kind of assay: Ras-Raf (BRAF RBD) disruption / FRET / MOA assay, KRAS G13D. Format: biochemical. The note with it: read-out: IC50* KRAS G13D FRET data. The gist of the method: as §1
The target of assay [7] is KRAS Q61H (Homo sapiens (Human), UniProt P01116+P62937, Q61H). Kind of assay: Ras-Raf (BRAF RBD) disruption / FRET / MOA assay, KRAS Q61H. Particulars: Ras-Raf disruption/FRET/MOA assay; class symbols; read-out: KRAS Q61H FRET data IC50. The assay is classed as biochemical. The gist of the method:
(§2)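 TR-FRET disruption of nucleotide-loaded Ras binding to BRAF RBD via compound-driven ternary complex with cyclophilin A. Compound as 10-point 3-fold series from 30 μM final, 3 h at 25° C, then anti-His Eu-W1024 (10 nM) and anti-GST allophycocyanin (50 nM) for 1.5 h. IC50 from decreased FRET ratio versus DMSO.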

The target of assay [8] is NRAS G12C (Homo sapiens (Human), UniProt P01111+P62937, G12C). Description: Ras-Raf (BRAF RBD) disruption / FRET / MOA assay, NRAS G12C. Format: biochemical. Particulars: read-out: IC50* NRAS G12C FRET data. The gist of the method:
as §1

Assay [9] has as its target NRAS Q61R (Homo sapiens (Human), UniProt P01111+P62937, Q61R). Kind of assay: Ras-Raf (BRAF RBD) disruption / FRET / MOA assay, NRAS Q61R. Format: biochemical. The note with it: NRAS Q61R; Ras-Raf disruption/FRET/MOA assay; read-out: IC50* NRAS Q61R FRET data. The gist of the method: as §2
The target of assay [10] is NRAS WT (Homo sapiens (Human), UniProt P01111+P62937). Description: Ras-Raf (BRAF RBD) disruption / FRET / MOA assay, NRAS WT. The assay is classed as biochemical. The note with it: read-out: IC50* NRAS WT FRET data. The gist of the method:
as §2

KRAS G13D, sequence (P01116-2 other isoform, or with tags, fused parts or gaps G13D): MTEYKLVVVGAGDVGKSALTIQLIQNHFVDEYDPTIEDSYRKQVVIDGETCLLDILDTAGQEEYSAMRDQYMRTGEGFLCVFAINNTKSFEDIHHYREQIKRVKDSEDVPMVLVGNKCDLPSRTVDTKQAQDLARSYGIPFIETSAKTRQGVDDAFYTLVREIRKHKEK
KRAS G13D, sequence (P62937 whole entry): as the sequence (P62937 whole entry) above
K-Ras G13C, sequence (P01116-2 other isoform, or with tags, fused parts or gaps G13C): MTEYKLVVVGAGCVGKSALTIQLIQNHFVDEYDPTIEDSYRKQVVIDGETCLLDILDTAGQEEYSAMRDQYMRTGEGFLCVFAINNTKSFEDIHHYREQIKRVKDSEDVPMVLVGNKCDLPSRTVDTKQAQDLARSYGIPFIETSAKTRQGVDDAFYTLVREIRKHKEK
K-Ras G13C, sequence (P62937 whole entry): as the sequence (P62937 whole entry) above
NRAS Q61R, sequence (P01111 whole entry Q61R): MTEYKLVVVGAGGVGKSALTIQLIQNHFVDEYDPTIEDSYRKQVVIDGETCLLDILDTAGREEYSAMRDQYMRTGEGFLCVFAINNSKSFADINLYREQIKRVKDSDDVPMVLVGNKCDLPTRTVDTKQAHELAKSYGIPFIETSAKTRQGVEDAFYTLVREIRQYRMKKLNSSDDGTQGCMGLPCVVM
NRAS Q61R, sequence (P62937 whole entry): as the sequence (P62937 whole entry) above
NRAS G12C, sequence (P01111 whole entry G12C): as the sequence (P01111 whole entry Q61R) above, with G12C, R61Q counted along it
NRAS G12C, sequence (P62937 whole entry): as the sequence (P62937 whole entry) above
KRAS Q61H, sequence (P01116-2 other isoform, or with tags, fused parts or gaps Q61H): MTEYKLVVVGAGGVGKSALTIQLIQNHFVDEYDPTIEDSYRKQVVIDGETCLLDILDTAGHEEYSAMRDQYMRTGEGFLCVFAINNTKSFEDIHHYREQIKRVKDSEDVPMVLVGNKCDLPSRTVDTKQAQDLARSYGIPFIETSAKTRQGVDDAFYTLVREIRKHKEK
KRAS Q61H, sequence (P62937 whole entry): as the sequence (P62937 whole entry) above
K-Ras G12C, sequence (P01116-2 other isoform, or with tags, fused parts or gaps G12C): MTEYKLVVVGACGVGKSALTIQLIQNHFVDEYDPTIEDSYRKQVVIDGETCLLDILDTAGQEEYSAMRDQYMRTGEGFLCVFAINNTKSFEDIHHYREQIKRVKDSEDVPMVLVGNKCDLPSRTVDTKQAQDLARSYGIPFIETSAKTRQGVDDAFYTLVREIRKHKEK
K-Ras G12C, sequence (P62937 whole entry): as the sequence (P62937 whole entry) above
NRAS WT, sequence (P01111 whole entry): as the sequence (P01111 whole entry Q61R) above, with R61Q counted along it
NRAS WT, sequence (P62937 whole entry): as the sequence (P62937 whole entry) above

For the compound `CCn1c(-c2cccnc2[C@H](C)OC)c2c3cc(ccc31)-c1cnc(o1)C[C@H](NC(=O)[C@H](C(C)C)N(C)C(=O)[C@H]1CCN(C(=O)C#CC(C)(C)N(C)C)C1)C(=O)N1CCC[C@H](N1)C(=O)OCC(C)(C)C2` (atropisomer, axis not shown) [Example A692, (3S)-1-(4-(dimethylamino)-4-methylpent-2-ynoyl)-N-((2S)-1-(((6^3S,4S)-1^1-ethyl-1^2-(2-((S)-1-methoxyethyl)pyridin-3-yl)-10,10-dimethyl-5,7-dioxo-6^1,6^2,6^3,6^4,6^5,6^6-hexahydro-1^1H-8-oxa-2(5,2)-oxazola-1(5,3)-indola-6(1,3)-pyridazinacycloundecaphane-4-yl)amino)-3-methyl-1-oxobutan-2-yl)-N-methylpyrrolidine-3-carboxamide], the half-inhibitory concentration (IC50) in assay [1] was under 10 nM; in assay [2] it was under 10 nM; in assay [3], 100 to 1000 nM; in assay [4], 1000 to 10000 nM; in [5], 1000 to 10000 nM; in assay [6], over 10000 nM. In addition, the IC50 was 1000 to 10000 nM in [7], under 10 nM in assay [8], over 10000 nM in assay [9] and over 10000 nM in assay [10].

As for `C=CC(=O)N1CCOC2(CCN(C(=O)N(C)[C@H](C(=O)N[C@H]3Cc4nc(cs4)-c4ccc5c(c4)c(c(-c4cccnc4[C@H](C)OC)n5CC)CC(C)(C)COC(=O)[C@@H]4CCCN(N4)C3=O)C(C)C)CC2)C1` (atropisomer, axis not shown) [Example A695], the IC50 in assay [1] was 10 to 100 nM; in [2], 100 to 1000 nM; in assay [3] it was 10 to 100 nM; in [4] it was 100 to 1000 nM; in [5], 100 to 1000 nM; in assay [6] it was 100 to 1000 nM. The IC50 in [7] lay in the range of 100 to 1000 nM; in [8], 10 to 100 nM; in [9], 100 to 1000 nM; in assay [10], 100 to 1000 nM.

For the compound `C=CC(=O)N1CCC2(CC1)CCN(C(=O)N(C)[C@H](C(=O)N[C@H]1Cc3nc(cs3)-c3ccc4c(c3)c(c(-c3cccnc3[C@H](C)OC)n4CC)CC(C)(C)COC(=O)[C@@H]3CCCN(N3)C1=O)C(C)C)CC2` (atropisomer, axis not shown) [Example A697], the IC50 in assay [1] lay within 10 to 100 nM; in assay [2], 10 to 100 nM; in assay [3], 100 to 1000 nM; in assay [4], 100 to 1000 nM; in assay [5], 100 to 1000 nM; in assay [6], 100 to 1000 nM. Besides, the 50% inhibitory concentration (IC50) in [7], in assay [8], in assay [9] and in [10] was 10 to 100 nM in each case.

`C=CC(=O)N1CCC(F)(C(=O)N(C)[C@H](C(=O)N[C@H]2Cc3nc(cs3)-c3ccc4c(c3)c(c(-c3cccnc3[C@H](C)OC)n4CC)CC(C)(C)COC(=O)[C@@H]3CCCN(N3)C2=O)C(C)C)CC1` (atropisomer, axis not shown) [Example A700]: the IC50 in [1] is under 10 nM; in assay [2], 10 to 100 nM; in assay [3], 100 to 1000 nM; in assay [4], 100 to 1000 nM; in assay [5], 100 to 1000 nM; in assay [6] it was 100 to 1000 nM. In addition, the concentration for half-maximal inhibition (IC50) in assay [7] fell in the range of 100 to 1000 nM; in [8] it was 10 to 100 nM; in assay [9], 100 to 1000 nM; in [10] it was 100 to 1000 nM.

`C=CC(=O)N1CCO[C@H]2CN(C(=O)N(C)[C@H](C(=O)N[C@H]3Cc4nc(cs4)-c4ccc5c(c4)c(c(-c4cccnc4[C@H](C)OC)n5CC)CC(C)(C)COC(=O)[C@@H]4CCCN(N4)C3=O)C(C)C)C[C@H]21` (atropisomer, axis not shown) [Example A706]: the half-maximal inhibitory concentration (IC50) in [1] was under 10 nM; in [2] it was 10 to 100 nM; in [3], 10 to 100 nM; in assay [4], 1000 to 10000 nM; in assay [5], 1000 to 10000 nM; in assay [6], 1000 to 10000 nM. Moreover, the IC50 fell in the range of 100 to 1000 nM in assay [7], 10 to 100 nM in assay [8], 100 to 1000 nM in assay [9] and 1000 to 10000 nM in assay [10].

In the case of `CO[C@@H](C)c1ncccc1-c1c2c3cc(ccc3n1CC(F)(F)F)-c1cnc(o1)C[C@H](NC(=O)[C@H](C(C)C)N(C)C(=O)[C@H]1CCN(C(=O)C#CC(C)(C)N(C)C)C1)C(=O)N1CCC[C@H](N1)C(=O)OCC(C)(C)C2` (atropisomer, axis not shown) [Example A707], the IC50 in assay [1] was under 10 nM; in [2] it was under 10 nM; in assay [3], 100 to 1000 nM; in [4], 1000 to 10000 nM; in assay [5], 1000 to 10000 nM; in assay [6] it was 1000 to 10000 nM. Besides, the IC50 in [7] is 1000 to 10000 nM; in assay [8], under 10 nM; in [9] it was over 10000 nM; in assay [10], 1000 to 10000 nM.

On to `CO[C@@H](C)c1ncccc1-c1c2c3nc(ccc3n1CC(F)(F)F)-c1cccc(c1)C[C@H](NC(=O)[C@@H](COC1CN(C(=O)C#CC(C)(C)N(C)C)C1)C(C)C)C(=O)N1CCC[C@H](N1)C(=O)OCC(C)(C)C2` (atropisomer, axis not shown) [Example A724], for which the IC50 in [1] is under 10 nM; in assay [2], 10 to 100 nM; in [3], over 10000 nM; in [4] it was over 10000 nM; in assay [5], over 10000 nM; in assay [6], over 10000 nM. In addition, the half-maximal inhibitory concentration (IC50) was over 10000 nM in assay [7], 10 to 100 nM in assay [8], over 10000 nM in [9] and over 10000 nM in assay [10].

For `CCn1c(-c2cccnc2[C@H](C)OC)c2c3cc(ccc31)-c1cccc(c1)C[C@H](NC(=O)[C@H](C(C)C)N1CO[C@@]3(CCN(C(=O)C#CC(C)(C)N4CCC4)C3)C1=O)C(=O)N1CCC[C@H](N1)C(=O)OCC(C)(C)C2` (atropisomer, axis not shown) [Example A733], the half-inhibitory concentration (IC50) was under 10 nM in [1]; 10 to 100 nM in assay [2]; 100 to 1000 nM in [3]; 1000 to 10000 nM in assay [4]; over 10000 nM in assay [5]; over 10000 nM in [6]. Further, the 50% inhibitory concentration (IC50) is 1000 to 10000 nM in [7], 10 to 100 nM in [8], over 10000 nM in [9] and over 10000 nM in assay [10].

For `C=CC(=O)N1CCN(C(=O)N(C)[C@H](C(=O)N[C@H]2Cc3nc(cs3)-c3ccc4c(c3)c(c(-c3cccnc3[C@H](C)OC)n4CC)CC(C)(C)COC(=O)[C@@H]3CCCN(N3)C2=O)C(C)C)[C@@H]2C[C@@H]21` (atropisomer, axis not shown) [Example A736], the half-inhibitory concentration (IC50) in assay [1] is under 10 nM; in assay [2] it was 10 to 100 nM; in assay [3], 10 to 100 nM; in [4], 100 to 1000 nM; in assay [5], 10 to 100 nM; in assay [6], 100 to 1000 nM. Besides, the concentration for half-maximal inhibition (IC50) in assay [7], in assay [8], in assay [9] and in assay [10] was 10 to 100 nM in each case.

Regarding `C=CC(=O)C1CC[C@H](C(=O)N(C)[C@H](C(=O)N[C@H]2Cc3cc(O)cc(c3)-c3ccc4c(c3)c(c(-c3cnn(C)c3[C@H](C)OC)n4CC)CC(C)(C)COC(=O)[C@@H]3CCCN(N3)C2=O)C(C)C)C1` (some centres unmarked) [Example A166], the IC50 is under 10 nM in [1]; 10 to 100 nM in assay [2]; 100 to 1000 nM in assay [3]; 100 to 1000 nM in [4]; 100 to 1000 nM in assay [5]; 1000 to 10000 nM in [6]. For the same compound, the IC50 lay within 100 to 1000 nM in [7], 10 to 100 nM in assay [8], 1000 to 10000 nM in assay [9] and 100 to 1000 nM in [10].

For `C=CC(=O)N1CC[C@H](C(=O)N(C)[C@H](C(=O)N[C@H]2Cc3cc(O)cc(c3)-c3ccc4c(c3)c(c(-c3cncc5c3[C@@H](OC)CC5)n4CC)CC(C)(C)COC(=O)[C@@H]3CCCN(N3)C2=O)C(C)C)C1` [Example A275], the half-inhibitory concentration (IC50) in assay [1] was under 10 nM; in assay [2], 10 to 100 nM; in assay [3], 10 to 100 nM; in assay [4], 10 to 100 nM; in assay [5], 100 to 1000 nM; in assay [6], 100 to 1000 nM. For the same compound, the IC50 in [7] was 10 to 100 nM; in assay [8], 10 to 100 nM; in assay [9], 100 to 1000 nM; in assay [10], 10 to 100 nM.

The record behind these values is patent publication US11566007B2, “Ras inhibitors” (Revolution Medicines, Inc., priority 2019, dated 2023).
